Counter-ions that a name gives are not always drawn.

From patent US20080118436A1, “Pathological Animal Model For Non-Alcoholic Fatty Hepatitis” (priority 2004, published 2008) come the findings set out here.

Data set [1] deals with C57BL/6J male mice. The data set is described as follows: Subcutaneous administration of tetracycline hydrochloride for 10 days to mice fed with HFD for 8 weeks (Example 2). Format: in vivo. Conditions: for histopathological test of liver: mouse, in vivo, sc. The text has this: (§1) In the following Examples and Comparative examples, as an animal for producing a pathologic model animal, C57BL/6J male mice (Nippon CLEA, Inc.) were used. Further, as a high-fat diet (hereinafter referred to as “HFD”), D12492 (fat content: 60 kcal%) (Research Diet Inc.) was used. As a control diet, CE-2 (Nippon CLEA, Inc.) to be used for normal rearing of mice was used. As a tetracycline antibiotic, tetracycline hydrochloride (Sigma Inc.) was used. The administration of tetracycline hydrochloride was carried out by injection of a solution of 0, 10, 30 or 100 mg/10 mL of tetracycline hydrochloride prepared with a 0.5% physiological saline solution. Here, the “solution of 0 mg/10 mL of tetracycline hydrochloride” means a 0.5% physiological saline solution.
20 mice (7 weeks of age) were fed ad libitum with HFD for 8 weeks. Then, the mice were divided into 4 groups (5 mice×4 groups) in such a manner that the body weight and the body fat percentage were equal in the respective groups, and subcutaneously administered with tetracycline hydrochloride at a dose of 0, 30, 60 and 100 mg/kg/day for 10 days (hereinafter, the groups administered with tetracycline hydrochloride at a dose of 0, 30, 60 and 100 mg/kg/day are referred to as “TC 0 group”, “TC 30 group”, “TC 60 group” and “TC 100 group”, respectively). The mice were fed ad libitum with HFD also during the period of administering tetracycline hydrochloride.
The body weight of mice was measured on 3 days before initiation of administration of tetracycline hydrochloride and everyday from the next day until day 11 after initiation of administration thereof. FIG. 12 is a line graph showing the change in the body weight of mice subcutaneously administered with tetracycline hydrochloride for 10 days after feeding them with HFD for 8 weeks. […] Incidentally, in FIG. 12, the term “days” represents the number of days elapsed after initiation of administration of tetracycline hydrochloride.
Blood collection and dissection were carried out in the same manner as in Example 1.
The plasma ALT level, plasma AST level, plasma insulin level and plasma glucose level were measured in the same manner as in Example 1. FIG. 13 is a bar graph showing the plasma ALT level in mice subcutaneously administered with tetracycline hydrochloride for 10 days after feeding them with HFD for 8 weeks. FIG. 14 is a bar graph showing the plasma AST level in mice subcutaneously administered with tetracycline hydrochloride for 10 days after feeding them with HFD for 8 weeks. […] FIG. 15 is a bar graph showing the plasma insulin level in mice subcutaneously administered with tetracycline hydrochloride for 10 days after feeding them with HFD for 8 weeks. […] FIG. 16 is a bar graph showing the plasma glucose level in mice subcutaneously administered with tetracycline hydrochloride for 10 days after feeding them with HFD for 8 weeks.
The hepatic TG level was measured in the same manner as in Example 1. FIG. 17 is a bar graph showing the hepatic TG level in mice subcutaneously administered with tetracycline hydrochloride for 10 days after feeding them with HFD for 8 weeks.
Measurement of Hepatic TNF-α mRNA level and hepatic IL-1β mRNA level The hepatic TNF-α mRNA level and hepatic IL-1β mRNA level were measured in the same manner as in Example 1. FIG. 18 is a bar graph showing the hepatic TNF-α mRNA level in mice subcutaneously administered with tetracycline hydrochloride for 10 days after feeding them with HFD for 8 weeks. FIG. 19 is a bar graph showing the hepatic IL-1β mRNA level in mice subcutaneously administered with tetracycline hydrochloride for 10 days after feeding them with HFD for 8 weeks.
A histopathological test of liver was carried out in the same manner as in Example 1.

Data set [2] concerns C57BL/6J male mice. The data set is described as follows: Intraperitoneal administration of tetracycline hydrochloride for 10 days to mice fed with HFD for 8 weeks (Example 1). It counts as in vivo.
Source text: as §1
29 mice (6 weeks of age) were divided into a group of 15 mice fed with HFD (hereinafter referred to as an “HFD group”) and a group of 14 mice fed with a control diet (hereinafter referred to as a “control group”). The following experiments related to the HFD group (15 mice) and the control group (14 mice) were assigned to Example 1 and Comparative example 1, respectively.
Feeding of HFD or control diet and intraperitoneal administration of tetracycline hydrochloride First, the mice in the HFD group and the control group were fed ad libitum with HFD and the control diet for 8 weeks, respectively. Then, the mice in the HFD group and the control group were divided into 3 groups, respectively, in such a manner that the body weight and the body fat percentage were equal in the respective groups, thereby to form 3 groups in the HFD group (5 mice×3 groups), and 3 groups in the control group (5 mice×2 groups and 4 mice×1 group). Then, tetracycline hydrochloride was intraperitoneally administered to both the HFD group and the control group at a dose of 0, 10 and 30 mg/kg/day for 10 days (hereinafter, the groups administered with tetracycline hydrochloride at a dose of 0, 10 and 30 mg/kg/day are referred to as “TC 0 group”, “TC 10 group” and “TC 30 group”, respectively). The mice were fed ad libitum with HFD or the control diet also during the period of administering tetracycline hydrochloride.
The body weight of mice was measured on 4 days before initiation of administration of tetracycline hydrochloride and on day 1, 3, 5, 7, 10 and 11 after initiation of administration thereof. FIG. 1 is a line graph showing the change in the body weight of mice intraperitoneally administered with tetracycline hydrochloride for 10 days after feeding them with HFD or the control diet for 8 weeks. […] Incidentally, in FIG. 1, the term “days” represents the number of days elapsed after initiation of administration of tetracycline hydrochloride.
On the next day after completion of administration of tetracycline hydrochloride (on day 11 after initiation of administration), the mice were anesthetized by isoflurane inhalation. After it was Confirmed that the mice lost pain sensation by pinching the tail with forceps, the mice underwent laparotomy and the blood was collected from the abdominal vena cava with a syringe containing heparin. The collected blood was centrifuged at 4° C. for 10 minutes at 7500 rpm thereby to separate plasma. The obtained plasma was cryopreserved. […]
By using the cryopreserved plasma, the plasma ALT level, plasma AST level and plasma glucose level were measured using Hitachi autoanalyzer 7070 (Hitachi Hi Technologies), and the plasma insulin level was measured using an insulin assay kit (Seikagaku Corporation). […]

[3] abbreviates: HFD 8 weeks, s.c. 30 mg/kg/day for 10 days, vs normal mice.
The mark [4] stands for this setting: HFD 8 weeks, s.c. 60 mg/kg/day for 10 days, vs normal mice.
The mark [5] stands for this setting: HFD 8 weeks, s.c. 100 mg/kg/day for 10 days, vs normal mice.
Where [6] appears, read: HFD 8 weeks, i.p. 30 mg/kg/day for 10 days, vs normal mice.
Where [7] appears, read: HFD group (i.p. 0, 10, 30 mg/kg/day for 10 days), vs normal mice.

Take `CN(C)[C@@H]1C(O)=C(C(N)=O)C(=O)[C@@]2(O)C(O)=C3C(=O)c4c(O)cccc4[C@@](C)(O)[C@H]3C[C@@H]12` [tetracycline hydrochloride]: the “plasma ALT level” value in data set [1] (setting [3]), in data set [1] (setting [4]), in data set [1] (setting [5]) and in data set [2] (setting [6]) was “significantly higher” each time. For the same compound, the “plasma AST level” value in data set [1] (setting [3]), in data set [1] (setting [4]), in data set [1] (setting [5]) and in data set [2] (setting [6]) was “significantly higher” each time. The plasma insulin level result in data set [1] (setting [3]) is “higher”; in data set [1] (setting [4]), “higher”; in data set [1] (setting [5]), “equivalent”; in data set [2] (setting [7]), “equivalent to or higher”. Moreover, the plasma glucose level result in data set [1] (HFD 8 weeks, s.c. any group (0, 30, 60, 100 mg/kg/day) for 10 days, vs normal mice) is listed as “higher”; in data set [2] (setting [7]) it was “equivalent to or higher”. Also, the “histopathological test of liver” value was “presence of fatty liver and the invasion of inflammatory cells were observed” in data set [1] (30 mg/kg/day); “presence of fatty liver and the invasion of inflammatory cells were observed” in data set [1] (60 mg/kg/day); “presence of fatty liver and the invasion of inflammatory cells were observed” in data set [1] (100 mg/kg/day); “presence of fatty liver and the invasion of inflammatory cells were observed” in data set [2] (mouse, in vivo, ip, 30 mg/kg/day).
